From patent publication US9855292B2, “Cyanocobalamin, methylcobalamin, and/or adenosylcobalamin to help maintain a pain-free head and pain-free body and provide defense against headaches and body pain” (priority 2013, dated 2018)
Read-outs that look alike come from different tables or passages of the source.

What was measured:
[1] = test system: headache and body pain in humans; experiment: Example 2 Phase 3 study: documented reports of headache and body pain; format: in vivo, human; details: active group
Source text: This clinical study was designed and directed by the inventor of the current patent. A large, multi-center, Phase 3, randomized, placebo-controlled clinical study on 1,551 patients was designed and directed by the inventor of the current patent. Methods: The study was titled: “A Phase 3, randomized, double-blind, placebo-controlled, parallel group study of the safety and efficacy of pre-seasonal sublingual cyanocobalamin lozenges on moderate to moderately severe seasonal allergic rhinitis in humans”. The study took place before and during the ragweed pollen season at 23 study sites in the Midwest, Northeast and Central Texas regions of the United States. Essentially all of the 23 investigators were Board Certified in Allergy/Immunology. Qualified subjects were randomized into an active or placebo group (approximately 50% and 50%) using an interactive voice recognition system (IVRS). All subjects (or their guardians) signed an Informed Consent form approved by the IRB. Each subject had three visits to the clinic. At Visit 1 and at Visit 3, they were given a physical exam (HEENT, chest, lungs, heart, vital signs, height and weight); and donated blood and urine samples for laboratory analysis. CBC and chemistry panels were run for safety analyses. The blood samples were analyzed by chemiluminescent immunoassay for the presence of ragweed specific immunoglobulin epsilon (IgE), and were assayed for cobalamins (cyanocobalamin, methylcobalamin and adenosylcobalamin) levels.
Subjects were given their study medication, either 3.3 mg Cyanocobalamin, USP or placebo in the a.m. and p.m. Subjects were instructed to let the study drug “dissolve completely in your mouth, especially under your tongue, then swallow.”. Subjects self-administered the study medications for six consecutive weeks.
Any adverse event (AE) or serious adverse event (SAE) was documented by the subject in a paper diary and then transcribed to the appropriate case report form (CRF) page. All SAEs were attended to by the investigator, and reported to the FDA by the sponsor. All sites were monitored multiple times by qualified monitors.
The following types of headaches were self-diagnosed and documented by subjects in the study: tension headache, headache, migraine, increased frequency of headaches, worsening sinus migraine headache, increased headache, headache worsening, worsening of migraine, sinus headache, severe sinus headache, and sinus pressure headache.
The following types of body pains and myasthenia were self-diagnosed and documented by subjects in the study: ear pain, earache, sore throat, sore muscles, leg cramps, myalgia, back pain, sprained ankle, ache, toothache, hip pain, finger pain, knee pain, pulled back muscle, shoulder pain, pulled hamstring, neck pain, femur pain, gum pain, sore muscle, toenail pain, sore foot, and pulled neck muscle.

[2] = Example 2 Phase 3 study: blood serum cobalamin levels; format: in vivo, human; details: cyanocobalamin, methylcobalamin and adenosylcobalamin; 3.3 mg a.m. and p.m., six weeks
Source text: (§1) This clinical study was designed and directed by the inventor of the current patent. A large, multi-center, Phase 3, randomized, placebo-controlled clinical study on 1,551 patients was designed and directed by the inventor of the current patent. Methods: The study was titled: “A Phase 3, randomized, double-blind, placebo-controlled, parallel group study of the safety and efficacy of pre-seasonal sublingual cyanocobalamin lozenges on moderate to moderately severe seasonal allergic rhinitis in humans”. The study took place before and during the ragweed pollen season at 23 study sites in the Midwest, Northeast and Central Texas regions of the United States. Essentially all of the 23 investigators were Board Certified in Allergy/Immunology. Qualified subjects were randomized into an active or placebo group (approximately 50% and 50%) using an interactive voice recognition system (IVRS). All subjects (or their guardians) signed an Informed Consent form approved by the IRB. Each subject had three visits to the clinic. […] The blood samples were analyzed by chemiluminescent immunoassay for the presence of ragweed specific immunoglobulin epsilon (IgE), and were assayed for cobalamins (cyanocobalamin, methylcobalamin and adenosylcobalamin) levels. […]

[3] = Example 2 Phase 3 study: safety; format: in vivo, human; details: 3.3 mg a.m. and p.m., six weeks
Source text: This clinical study was designed and directed by the inventor of the current patent. A large, multi-center, Phase 3, randomized, placebo-controlled clinical study on 1,551 patients was designed and directed by the inventor of the current patent. Methods: The study was titled: “A Phase 3, randomized, double-blind, placebo-controlled, parallel group study of the safety and efficacy of pre-seasonal sublingual cyanocobalamin lozenges on moderate to moderately severe seasonal allergic rhinitis in humans”. The study took place before and during the ragweed pollen season at 23 study sites in the Midwest, Northeast and Central Texas regions of the United States. Essentially all of the 23 investigators were Board Certified in Allergy/Immunology. Qualified subjects were randomized into an active or placebo group (approximately 50% and 50%) using an interactive voice recognition system (IVRS). […] The blood samples were analyzed by chemiluminescent immunoassay for the presence of ragweed specific immunoglobulin epsilon (IgE), and were assayed for cobalamins (cyanocobalamin, methylcobalamin and adenosylcobalamin) levels.
Any adverse event (AE) or serious adverse event (SAE) was documented by the subject in a paper diary and then transcribed to the appropriate case report form (CRF) page. […] All sites were monitored multiple times by qualified monitors.

migraine patients [4] = details: 2 mg intramuscularly every two weeks for two months, cited from earlier work
[5] = test system: human subjects with demonstrated seasonal allergic rhinitis (hay fever); experiment: Example 1 clinical study: reports of Headache after 21 days of study medication; format: in vivo; details: for post-treatment reports of Headache, decrease from baseline: active group
Method: This clinical study was designed and directed by the inventor of the current patent. […] Subjects were given their study medication, either Cyanocobalamin, USP or placebo in the a.m. and p.m. every day for 21 consecutive days. Data on adverse events including headache was captured throughout the ten-week duration of the study. Week One was a baseline during which time no medication was administered; Weeks Two, Three and Four were the weeks during which time the subjects received their study medication; and Weeks Five through Ten were a post-treatment period during which time no medication was administered but observations of symptoms and adverse events were documented. Each time a subject felt a “Headache”, he or she reported its occurrence.

[6] = test system: moderate to moderately severe seasonal allergic rhinitis in humans; experiment: Example 2 Phase 3 study: allergy symptom scores; format: in vivo, human; details: Weeks 4, 5 and 6; ITT; sneezing, runny nose, nasal congestion, nasal itch and eye itch
Source text: as §1

migraine patients [7] = details: cited from earlier work; for mean migraine severity: 0-3 scale, all subjects

Which results are given for “5,6-dimethylbenzimidazolyl cyanocobamide [cyanocobalamin]”?
headache and body pain reports rated Mild [1]: 63 reports; headache and body pain reports rated Mild, share [1]: 46.0%; headache and body pain reports rated Moderate [1]: 68 reports; headache and body pain reports rated Moderate, share [1]: 49.6%; headache and body pain reports rated Severe [1]: 6 reports; headache and body pain reports rated Severe, share [1]: 4.4%; documented reports of some type of headache and of body pain ([1]; of 294 reports in total): 137 reports; average increase in post-treatment blood serum cobalamin levels [2]: more than 250%; safety / tolerability [3]: well tolerated; authors' conclusion on therapeutic effect (migraine patients [4]): no therapeutic effect attributable to cyanocobalamin was demonstrated; patients reporting Considerable improvement (migraine patients [4]; active n=15): 2; patients reporting Good result (migraine patients [4]; active n=15): 4; post-treatment reports of Headache, decrease from baseline ([5]; Week Eight): −2.1; post-treatment reports of Headache, decrease from baseline ([5]; Week Five): −1.4; post-treatment reports of Headache, decrease from baseline ([5]; Week Nine): −3.4; post-treatment reports of Headache, decrease from baseline ([5]; Week Seven): −1.4; post-treatment reports of Headache, decrease from baseline ([5]; Week Six): −1.6; post-treatment reports of Headache, decrease from baseline ([5]; Week Ten): −3.2; persistence of effect per follow-up questionnaire ([5]; almost one year later, 43 active and 49 placebo subjects): persistence of effect lasting almost one year; persistence of effect after finishing the treatment ([5]; post-treatment Weeks Five through Ten): at least six weeks; greater reduction in the frequency of headache in the active group versus placebo ([5]; six post-treatment weeks): five out of six post-treatment weeks; reduction in allergy symptom severity from baseline versus placebo [6]: greater for the active group than the placebo group

Which mean migraine severity (migraine patients [7]; at baseline) does the source give for `C/C1=C2/[N-][C@H]([C@H](CC(N)=O)[C@@]2(C)CCC(=O)NC[C@@H](C)OP(=O)([O-])O[C@H]2[C@@H](O)[C@@H](n3cnc4cc(C)c(C)cc43)O[C@@H]2CO)[C@]2(C)N=C(/C(C)=C3N=C(/C=C4N=C1[C@@H](CCC(N)=O)C\4(C)C)[C@@H](CCC(N)=O)[C@]\3(C)CC(N)=O)[C@@H](CCC(N)=O)[C@]2(C)CC(N)=O.[Co+3].[OH-]` [hydroxocobalamin] here?
Its mean migraine severity is 2.2.

And the mean migraine severity (migraine patients [7]; at the end of the study)?
The mean migraine severity was 2.1.

What about the effect on migraine (migraine patients [7]; intranasal, unblinded, open-label, 19 migraine patients) of the same compound?
The effect on migraine was “can have an effect on migraine”.
